Consider two compounds from PMC6197744, “Triazolo[4,5-d]pyrimidines as Validated General Control Nonderepressible 2 (GCN2) Protein Kinase Inhibitors Reduce Growth of Leukemia Cells” (Computational and Structural Biotechnology Journal, 2018).

By inhibition is commonly meant the relative decrease from the control value, in per cent. The term IC50 denotes the midpoint of a concentration-inhibition curve. High values mean lower potency, low ones higher potency.

In one experiment the test system is MALME-3M. In words: NCI-60 one-dose screen. Format: cell-based, human. The following applies: 48 h; for inhibition at 10 µM: Homo sapiens, Melanoma MALME-3M, read-out: Percent growth inhibition; for increase in cell growth: melanoma cell line MALME-3 M, 10 μM. Here is the method: (§1) Compounds 1 and 2 were submitted to the National Cancer Institute NCI-60 Tumor Cell Screening Program (NCI number 800,700 and 800,701, respectively) for evaluation against the 60 cell line NCI panel at a single dose of 10 μM. […] Leukemia and breast cancer cell lines comprised the only cancer groups that were uniformly sensitive to both 1 and 2, with the greatest sensitivity seen in the leukemia SR cell line.
(§2) Compounds 1 and 2 were submitted to the NCI for growth inhibition screening against its panel of 60 cancer cell lines. The NCI screening protocol has extensively been described [[53], [54], [55], [56]]. Briefly, cancerous cell lines were grown in RPMI 1640 medium containing 5% fetal bovine serum and 2 mM L-glutamine. Depending on the doubling time of each cell line, 5000–40,000 cells were seeded in 96-well plates for 24 h. Cells were then treated with compounds 1 or 2 at a concentration of 10 μM and incubated for 48 h at 37 °C in a humidified atmosphere containing 5% CO2. The cells were then fixed and stained with sulforhodamine B (SRB) to determine their viability. The data were analyzed using a program called COMPARE to determine the percent growth inhibition of each compound.

For another experiment, the target named is T1, IRE1 (Homo sapiens, UniProt O75460).
T1 construct: purchased Reaction Biology Corporation (Malvern, PA)
T1 sequence (O75460 19-977): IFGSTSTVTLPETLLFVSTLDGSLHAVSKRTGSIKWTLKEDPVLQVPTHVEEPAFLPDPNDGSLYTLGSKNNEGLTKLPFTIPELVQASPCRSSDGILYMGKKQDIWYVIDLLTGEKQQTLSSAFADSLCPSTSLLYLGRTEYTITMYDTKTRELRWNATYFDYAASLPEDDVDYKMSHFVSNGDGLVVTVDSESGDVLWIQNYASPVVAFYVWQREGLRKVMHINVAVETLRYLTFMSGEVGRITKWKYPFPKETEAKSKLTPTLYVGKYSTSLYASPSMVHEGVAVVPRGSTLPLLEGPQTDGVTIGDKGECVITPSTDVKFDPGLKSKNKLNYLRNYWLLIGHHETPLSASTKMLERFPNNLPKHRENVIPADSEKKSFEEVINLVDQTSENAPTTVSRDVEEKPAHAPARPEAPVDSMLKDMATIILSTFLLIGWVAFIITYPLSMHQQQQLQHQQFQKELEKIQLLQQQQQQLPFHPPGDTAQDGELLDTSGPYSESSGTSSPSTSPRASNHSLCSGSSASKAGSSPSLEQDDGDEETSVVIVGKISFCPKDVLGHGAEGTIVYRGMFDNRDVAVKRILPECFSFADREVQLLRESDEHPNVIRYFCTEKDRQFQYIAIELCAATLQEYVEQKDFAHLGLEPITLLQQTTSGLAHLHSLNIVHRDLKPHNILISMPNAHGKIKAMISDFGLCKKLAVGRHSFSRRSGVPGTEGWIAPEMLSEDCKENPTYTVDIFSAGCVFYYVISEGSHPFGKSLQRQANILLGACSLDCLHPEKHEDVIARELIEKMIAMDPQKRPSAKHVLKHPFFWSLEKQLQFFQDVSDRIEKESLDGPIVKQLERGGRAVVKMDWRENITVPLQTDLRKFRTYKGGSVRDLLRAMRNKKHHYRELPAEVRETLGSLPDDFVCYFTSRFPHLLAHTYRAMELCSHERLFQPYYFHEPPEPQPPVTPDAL
Put plainly: radiometric HotSpot kinase assay. Format: biochemical. The following applies: 10 μM compound, 10 μM ATP; read-out: % Enzyme inhibition at 10 μM, IRE1. Here is the method:
(§3) Compounds 1–9 were screened in a radiometric […] kinase assay against human GCN2 and other kinases involved in the UPR and ISR pathways (Table 1). […] The most soluble of the potent tool compounds (1 and 2) were selected for in vitro cell-based assays where the phosphorylation of eIF2α (p-eIF2α) was used as a readout for GCN2 inhibition.
(§4) In vitro compound profiling for recombinant GCN2, PERK, HRI, PKR, or IRE1 kinases were performed at Reaction Biology Corporation (Malvern, PA) using the HotSpot kinase assay. Briefly, all compounds provided for testing were dissolved in 10 mM DMSO stock solutions. Serial dilutions were conducted by epMotion 5070 in DMSO. Specific kinase/substrate mixtures and required cofactors were prepared in reaction buffer (20 mM Hepes (pH 7.5), 10 mM MgCl2, 1 mM EGTA, 0.02% Brij35, 0.02 mg/ml BSA, 0.1 mM Na3VO4, 2 mM DTT, 1% DMSO). Compounds were added to the kinase reaction mixture by Acoustic technology (Echo550; nanoliter range) and incubated for 20 min at room temperature. The kinase reaction was initiated by adding ^33P ATP to a final concentration of 10 μM for single point kinase activity reading or to the ATP Km of GCN2 for IC50 readings. The reaction was incubated or 2 h at room temperature and kinase activity was detected by filter-binding method. IC50 values and curves were generated with GraphPad Prism 7 (GraphPad software).

In a further experiment the target is T2, PKR (Homo sapiens, UniProt P19525).
T2 construct: purchased Reaction Biology Corporation (Malvern, PA)
T2 sequence (P19525 whole entry): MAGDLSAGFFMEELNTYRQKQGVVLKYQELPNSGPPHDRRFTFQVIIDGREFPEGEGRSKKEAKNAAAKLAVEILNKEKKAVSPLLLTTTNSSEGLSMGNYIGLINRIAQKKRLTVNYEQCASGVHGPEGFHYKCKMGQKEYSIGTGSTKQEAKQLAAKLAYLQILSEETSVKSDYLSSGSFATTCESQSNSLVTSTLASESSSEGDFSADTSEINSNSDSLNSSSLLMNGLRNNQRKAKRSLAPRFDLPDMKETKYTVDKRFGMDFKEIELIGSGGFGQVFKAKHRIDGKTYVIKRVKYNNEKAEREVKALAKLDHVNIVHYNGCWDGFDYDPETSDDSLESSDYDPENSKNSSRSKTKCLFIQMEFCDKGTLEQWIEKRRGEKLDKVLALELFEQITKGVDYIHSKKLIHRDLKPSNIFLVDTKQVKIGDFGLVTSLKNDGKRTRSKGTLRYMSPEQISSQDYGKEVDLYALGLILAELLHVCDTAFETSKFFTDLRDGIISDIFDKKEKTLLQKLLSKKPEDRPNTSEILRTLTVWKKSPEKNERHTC
In words: radiometric HotSpot kinase assay. Format: biochemical. The conditions noted are these: for inhibition at 10 µM: 10 μM compound, 10 μM ATP, read-out: % Enzyme inhibition at 10 μM, PKR; for IC50: means of two independent experiments. Here is the method: as §3, §4

The target of the next experiment is T3, HRI (Homo sapiens, UniProt Q9BQI3).
T3 construct: purchased Reaction Biology Corporation (Malvern, PA)
T3 sequence (Q9BQI3 whole entry): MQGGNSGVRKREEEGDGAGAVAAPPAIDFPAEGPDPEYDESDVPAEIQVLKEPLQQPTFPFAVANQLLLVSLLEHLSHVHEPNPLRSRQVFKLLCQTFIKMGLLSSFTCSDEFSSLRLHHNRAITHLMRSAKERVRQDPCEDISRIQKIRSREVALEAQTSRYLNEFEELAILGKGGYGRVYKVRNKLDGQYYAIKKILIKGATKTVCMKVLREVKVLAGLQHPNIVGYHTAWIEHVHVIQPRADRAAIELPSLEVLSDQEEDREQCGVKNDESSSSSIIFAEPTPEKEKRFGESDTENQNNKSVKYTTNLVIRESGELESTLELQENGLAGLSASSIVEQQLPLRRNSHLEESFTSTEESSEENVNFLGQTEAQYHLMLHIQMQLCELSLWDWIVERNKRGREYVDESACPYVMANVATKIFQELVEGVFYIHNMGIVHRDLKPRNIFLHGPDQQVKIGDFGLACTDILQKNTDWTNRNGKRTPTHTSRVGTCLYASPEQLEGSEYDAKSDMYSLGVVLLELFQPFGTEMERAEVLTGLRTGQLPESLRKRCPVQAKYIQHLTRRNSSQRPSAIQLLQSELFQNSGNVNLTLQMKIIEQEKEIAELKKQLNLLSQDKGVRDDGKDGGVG
In words: radiometric HotSpot kinase assay. Format: biochemical. The conditions noted are these: 10 μM compound, 10 μM ATP; read-out: % Enzyme inhibition at 10 μM, HRI. Here is the method: as §3, §4

A further experiment relates to NCI/ADR-RES. Put plainly: NCI-60 one-dose screen. The experiment is classed as cell-based. The conditions noted are these: Homo sapiens, Ovarian NCI/ADR-RES, 48 h, read-out: Percent growth inhibition. Here is the method:
as §1, §2

The next experiment relates to MCF7. In words: NCI-60 one-dose screen. The experiment is classed as cell-based. The conditions noted are these: Homo sapiens; Breast MCF7, 10 μM, 48 h; read-out: Percent growth inhibition. Here is the method: as §1, §2
The subject of a further experiment is HT29. In words: NCI-60 one-dose screen. The conditions noted are these: Homo sapiens, HT-29, 48 h, Colon HT29, 10 μM, read-out: Percent growth inhibition. The experiment is classed as cell-based. Here is the method:
as §1, §2

Another experiment deals with NCI-H23. In words: NCI-60 one-dose screen. The experiment is classed as cell-based. The conditions noted are these: Homo sapiens; Non-Small Cell Lung NCI-H23, 10 μM, 48 h; read-out: Percent growth inhibition. Here is the method:
as §1, §2

Another experiment relates to HCT-15. Put plainly: NCI-60 one-dose screen. The experiment is classed as cell-based. The conditions noted are these: Homo sapiens; Colon HCT-15, 10 μM, 48 h; read-out: Percent growth inhibition. Here is the method:
as §1, §2

The test system of another experiment is 4E-BP mRNA. In words: qRT-PCR of 4E-BP mRNA in Drosophila S2 cells. The following applies: amino acid deprived, 10 μM, 6 h, vs DMSO control. The experiment is classed as cell-based. An excerpt:
It is known that under normal nutrient conditions the cap-dependent translational inhibitor 4E-BP is not expressed. However stress such as nutrient deprivation is known to trigger the transcriptional induction of 4E-BP. It has recently been shown that GCN2 and its downstream transcription factor, ATF4, mediate 4E-BP induction under amino acid deprivation in Drosophila, S2 cells. To further investigate the downstream effects of 1 and 2 on the amino acid deprivation GCN2 − ATF4 − 4E-BP pathway, the levels of 4E-BP mRNA transcript were monitored. We performed qRT-PCR on Drosophila S2 cells.
Drosophila S2 cell lines were cultured at 25 °C in Schneider's medium (Life Technologies, 21,720,024) and supplemented with 1% penicillin-streptomycin (Life Technologies, 15,140,122). For amino acid deprivation experiments, Schneider's medium lacking amino acids (USBiological Life Sciences, S0100-03) was used. Cells were treated for 6 h with 10 μM inhibitor concatenation or DMSO.
Total RNA was extracted with TRIzol Reagent (Invitrogen, USA). For cDNA synthesis, 200 ng of RNA was transcribed using SuperScript First-Strand Synthesis Kit (Invitrogen, USA). PCR amplification was performed for 25 cycles using taq polymerase (Roche) according to manufacturer's protocol. […] Results were expressed as the relative expression of mRNA levels detected in control samples and were calculated using the ΔΔCt method.
(In qPCR the cycle at which signal appears reflects the starting amount.)

For `CCn1cc(Nc2ncc3nnn(-c4ccc(C(=O)OC)cc4)c3n2)cn1` [Compound 1, Methyl 4-(5-((1-ethyl-1H-pyrazol-4-yl)amino)-3H-[1,2,3]triazolo[4,5-d]pyrimidin-3-yl)benzoate], the inhibition at 10 µM is -27.7% with MALME-3M; 37% at IRE1; 93% on PKR; 14% at HRI; -8.6% in the experiment with NCI/ADR-RES; 11.6% in the experiment with MCF7. Further, the inhibition at 10 µM turned out to be 47% in the experiment with HT29, 3.87% in the experiment with NCI-H23 and 11.2% with HCT-15. Moreover, in the experiment on MALME-3M, the “increase in cell growth” value stood at 27.7%. In addition, at PKR, the midpoint of inhibition, the IC50, lay at 0.119 µM. For the same compound, the “relative 4E-BP mRNA levels” value with 4E-BP mRNA is listed as “decreased”.

With `CCOc1ccc(-n2nnc3cnc(Nc4cnn(CC)c4)nc32)cc1` [Compound 2, 3-(4-Ethoxyphenyl)-N-(1-ethyl-1H-pyrazol-4-yl)-3H-[1,2,3]triazolo[4,5-d]pyrimidin-5-amine], the inhibition at 10 µM in the experiment with MALME-3M was -37.2%; at IRE1, 20%; at PKR, 99%; at HRI, < 10%; with NCI/ADR-RES, 1.5%; in the experiment on MCF7, 24.2%. In addition, the inhibition at 10 µM was 39.7% in the experiment with HT29, 5.25% in the experiment on NCI-H23 and 0.66% with HCT-15. For the same compound, the “increase in cell growth” value with MALME-3M turned out to be 37.2%. This compound also came in with a half-maximal inhibitory concentration (IC50) at PKR of 0.0399 µM. Besides, the “relative 4E-BP mRNA levels” value with 4E-BP mRNA is “decreased”.
